The text below walks through data of US9187426B2, “Organic compounds” (Novartis AG, priority 2008, dated 2015).

Turning to `O=C(NCc1cncs1)c1ccnc(N2CCN(Cc3ccc(F)c(F)c3)C2=O)c1` [Example 26.24, 2-(3-(3,4-Difluorobenzyl)-2-oxoimidazolidin-1-yl)-N-(thiazol-5-ylmethyl)-isonicotinamide], the melting point lay in the range of 111 to 113 °C.

In turn, `COc1ccccc1C(=O)Nc1cc(C(=O)NCc2ccccc2)ccn1` [Example 6.6, N-benzyl-2-(2-methoxybenzamido)isonicotinamide] gave a melting point of 205 to 207 °C.

With `O=C(NCc1ccccc1)c1ccnc(NC(=O)c2ccccc2F)c1` [Example 6, N-benzyl-2-(2-fluorobenzamido)isonicotinamide], the melting point fell in the range of 175 to 176 °C.

Compound `O=C(NCC1CC1)c1ccnc(N2CCN(Cc3ccc(F)cc3)C2=O)c1` [Example 15.5, N-(cyclopropylmethyl)-2-(3-(4-fluorobenzyl)-2-oxoimidazolidin-1-yl)isonicotinamide] had a melting point of 135 to 137 °C.

`CS(=O)(=O)c1cccc(C(=O)Nc2cc(C(=O)NCc3ccccc3)ccn2)c1` [Example 6.13, N-benzyl-2-(3-(methylsulfonyl)benzamido)isonicotinamide] gave a melting point of 170 to 171 °C.

In turn, `O=C(NCCC1CC1)c1ccnc(N2CCN(Cc3ccc(F)cc3)C2=O)c1` [Example 15.7, N-(2-cyclopropylethyl)-2-(3-(4-fluorobenzyl)-2-oxoimidazolidin-1-yl)isonicotinamide] came in with a melting point of 123 to 125 °C.

In turn, `O=C(NCc1ccc(F)c(F)c1)c1ccnc(N2CCN(CC3CC3)C2=O)c1` [Example 15.12, 2-(3-(cyclopropylmethyl)-2-oxoimidazolidin-1-yl)-N-(3,4-difluorobenzyl)isonicotinamide] yielded a melting point of 134 to 136 °C.

`O=C(NCc1ccccn1)c1cc(N2CCN(Cc3ccc(F)cc3)C2=O)nc2ccccc12` [Example 26.8, 2-(3-(4-Fluorobenzyl)-2-oxoimidazolidin-1-yl)-N-(pyridin-2-ylmethyl)quinoline-4-carboxamide] registered a melting point of 161 to 163 °C.

Turning to `O=C(NCc1ccc(F)c(F)c1)c1ccnc(N2CCN(Cc3ccc(F)cc3)C2=O)c1` [Example 15.14, N-(3,4-difluorobenzyl)-2-(3-(4-fluorobenzyl)-2-oxoimidazolidin-1-yl)isonicotinamide], the melting point fell in the range of 182 to 183 °C.

For `O=C(NCc1nccs1)c1ccnc(-n2cnn(Cc3ccc(F)c(F)c3)c2=O)c1` [Example 26.28, 2-(1-(3,4-Difluorobenzyl)-5-oxo-1H-1,2,4-triazol-4(5H)-yl)-N-(thiazol-2-ylmethyl)-isonicotinamide], the melting point was 161 to 163 °C.

Compound `O=C(NCc1cnc(Cl)s1)c1ccnc(N2CCN(Cc3ccc(C(F)(F)F)cc3)C2=O)c1` [Example 26.20, N-((2-Chlorothiazol-5-yl)methyl)-2-(2-oxo-3-(4-(trifluoromethyl)-benzyl)imidazolidin-1-yl)isonicotinamide] returned a melting point of 209 to 211 °C.

The compound `O=C(NCc1ccc(F)cc1)c1ccnc(N2CCN(C(F)(F)c3ccc(C(F)F)cc3)C2=O)c1` [Example 15.21, 2-(3-((4-(difluoromethyl)phenyl)difluoromethyl)-2-oxoimidazolidin-1-yl)-N-(4-fluorobenzyl)isonicotinamide] showed a melting point of 173 to 175 °C.

Regarding `O=C(NCc1ccccc1)c1ccnc(-n2ccc(OCc3ccccc3)cc2=O)c1` [Example 19, 4-benzyloxy-2-oxo-2H-[1,2′]bipyridinyl-4′-carboxylic acid benzylamide], the melting point lay within 158 to 161 °C.

For the compound `Cc1nn(C)c(C)c1CNC(=O)c1ccnc(N2CCN(Cc3ccc(F)cc3)C2=O)c1` [Example 14.7, 2-(3-(4-fluorobenzyl)-2-oxoimidazolidin-1-yl)-N-((1,3,5-trimethyl-1H-pyrazol-4-yl)methyl)isonicotinamide], the melting point lay within 179 to 181 °C.

As for `O=C(NCc1ccc(F)c(F)c1)c1ccnc(N2CCN(Cc3ccccn3)C2=O)c1` [Example 15.18, N-(3,4-difluorobenzyl)-2-(2-oxo-3-(pyridin-2-ylmethyl)imidazolidin-1-yl)isonicotinamide], the melting point lay in the range of 143 to 145 °C.

For the compound `O=C(NCc1ccccc1)c1ccnc(N2CCC(c3ccccc3)CC2=O)c1` (stereo not drawn) [Example 18, 2-oxo-4-phenyl-3,4,5,6-tetrahydro-2H-[1,2′]bipyridinyl-4′-carboxylic acid benzylamide], the melting point fell in the range of 55 to 60 °C.

For `Cc1nc(-c2ccccc2)sc1CNC(=O)c1ccnc(N2CCN(Cc3ccc(F)cc3)C2=O)c1` [Example 14.16, 2-(3-(4-fluorobenzyl)-2-oxoimidazolidin-1-yl)-N-((4-methyl-2-phenylthiazol-5-yl)methyl)isonicotinamide], the melting point lay within 182 to 184 °C.

As for `O=C(NCc1ncco1)c1ccnc(N2CCN(Cc3ccc(F)cc3)C2=O)c1` [Example 14.4, 2-(3-(4-fluorobenzyl)-2-oxoimidazolidin-1-yl)-N-(oxazol-2-ylmethyl)isonicotinamide], the melting point was 148 to 150 °C.

`O=C(NCc1ccc(F)cc1)c1ccnc(N2CCN(CC3CC3)C2=O)c1` [Example 15.6, 2-(3-(cyclopropylmethyl)-2-oxoimidazolidin-1-yl)-N-(4-fluorobenzyl)isonicotinamide] came in with a melting point of 150 to 151 °C.

In turn, `N#Cc1ccc(C(=O)Nc2cc(C(=O)NCc3ccccc3)ccn2)cc1` [Example 6.10, N-benzyl-2-(4-cyanobenzamido)isonicotinamide] returned a melting point of 180 to 181 °C.

On to `O=C(Nc1cc(-c2nc(-c3ccccc3)c[nH]2)ccn1)c1ccccc1` [Example 10.5, N-(4-(4-phenyl-1H-imidazol-2-yl)pyridin-2-yl)benzamide], for which the melting point was in the range of 265 to 267 °C.

In the case of `O=C(NCc1cccnc1)c1ccnc(N2CCN(CC3CC3)C2=O)c1` [Example 15.9, 2-(3-(cyclopropylmethyl)-2-oxoimidazolidin-1-yl)-N-(pyridin-3-ylmethyl)isonicotinamide], the melting point fell in the range of 122 to 123 °C.

The compound `CC(C)Cc1c[nH]c(-c2ccnc(NC(=O)c3ccccc3)c2)n1` [Example 10.3, N-(4-(4-isobutyl-1H-imidazol-2-yl)pyridin-2-yl)benzamide] returned a melting point of 103 to 105 °C.

As for `O=C(NCc1ccccc1)c1cc(O)nc(NC(=O)c2ccccc2)c1` [Example 8, 2-benzamido-N-benzyl-6-hydroxyisonicotinamide], the melting point is 257 °C (dec.).

For the compound `O=C(NCc1ccccc1)c1ccnc(NC(=O)c2cccs2)c1` [Example 6.3, N-benzyl-2-(thiophene-2-carboxamido)isonicotinamide], the melting point fell in the range of 160 to 162 °C.

Compound `O=C(NCc1cncs1)c1ccnc(-n2cnn(Cc3ccc(F)cc3)c2=O)c1` [Example 26.26, 2-(1-(4-Fluorobenzyl)-5-oxo-1H-1,2,4-triazol-4(5H)-yl)-N-(thiazol-5-ylmethyl)-isonicotinamide] yielded a melting point of 181 to 183 °C.

`O=C(NCc1ccccc1)c1ccnc(-n2cnn(CC3CC3)c2=O)c1` [Example 15.13, N-benzyl-2-(1-(cyclopropylmethyl)-5-oxo-1H-1,2,4-triazol-4(5H)-yl)isonicotinamide] showed a melting point of 137 to 139 °C.

For the compound `O=C(Nc1cc(-c2nc3ccccc3[nH]2)ccn1)c1ccccc1` [Example 4, N-(4-(1H-benzo[d]imidazol-2-yl)pyridin-2-yl)benzamide], the melting point was 145 to 146 °C.

In turn, `O=C(NCc1nnco1)c1ccnc(N2CCN(Cc3ccc(F)cc3)C2=O)c1` [Example 26.4, N-((1,3,4-Oxadiazol-2-yl)methyl)-2-(3-(4-fluorobenzyl)-2-oxoimidazolidin-1-yl)isonicotinamide] had a melting point of 211 to 213 °C.

Consider `O=C(NCc1nccs1)c1ccnc(N2CCN(Cc3ccc(OC(F)(F)F)cc3)C2=O)c1` [Example 26.17, 2-(2-Oxo-3-(4-(trifluoromethoxy)benzyl)imidazolidin-1-yl)-N-(thiazol-2-ylmethyl)-isonicotinamide], for which the melting point was 97 to 99 °C.

`Cc1cc(CNC(=O)c2ccnc(N3CCN(Cc4ccc(F)cc4)C3=O)c2)nn1C` [Example 14.11, N-((1,5-dimethyl-1H-pyrazol-3-yl)methyl)-2-(3-(4-fluorobenzyl)-2-oxoimidazolidin-1-yl)isonicotinamide] registered a melting point of 150 to 152 °C.

Compound `CC(NC(=O)c1ccnc(N2CCN(Cc3ccc(F)cc3)C2=O)c1)c1ccccc1` (stereo not drawn) [Example 26.6, 2-(3-(4-Fluorobenzyl)-2-oxoimidazolidin-1-yl)-N-(1-phenylethyl)-isonicotinamide] yielded a melting point of 115 to 117 °C.

Compound `Cc1nnc(CNC(=O)c2ccnc(N3CCN(Cc4ccc(F)cc4)C3=O)c2)o1` [Example 26.1, 2-(3-(4-Fluorobenzyl)-2-oxoimidazolidin-1-yl)-N-((5-methyl-1,3,4-oxadiazol-2-yl)methyl)isonicotinamide] gave a melting point of 136 to 138 °C.

In the case of `O=C(NCc1ccccc1)c1ccnc(NC(=O)c2cccc(F)c2)c1` [Example 6.1, N-benzyl-2-(3-fluorobenzamido)isonicotinamide], the melting point was 140 to 143 °C.

In turn, `O=C(NCc1ccon1)c1ccnc(N2CCN(Cc3ccc(F)cc3)C2=O)c1` [Example 14.14, 2-(3-(4-fluorobenzyl)-2-oxoimidazolidin-1-yl)-N-(isoxazol-3-ylmethyl)isonicotinamide] came in with a melting point of 127 to 129 °C.

With `O=C(NCc1ccccc1)c1ccnc(NC(=O)c2ccccc2)c1` [Example 5, 2-benzamido-N-benzylisonicotinamide], the melting point was 174 to 176 °C.

Turning to `Cc1nc(CNC(=O)c2ccnc(N3CCN(Cc4ccc(F)cc4)C3=O)c2)cs1` [Example 14.13, 2-(3-(4-fluorobenzyl)-2-oxoimidazolidin-1-yl)-N-((2-methylthiazol-4-yl)methyl)isonicotinamide], the melting point was in the range of 76 to 78 °C.

Compound `O=C(NCc1ccccc1)c1ccnc(NC(=O)c2ccc(OC(F)(F)F)cc2)c1` [Example 5.1, N-benzyl-2-(4-trifluoromethoxybenzoylamino)isonicotinamide] showed a melting point of 151 to 153 °C.

`O=C(CCc1ccccc1)Nc1cc(C(=O)NCc2ccccc2)ccn1` [Example 5.3, N-benzyl-2-(3-phenylpropanamido)isonicotinamide] had a melting point of 177 to 179 °C.

One may read the melting point as the temperature, or range, at which the solid turns liquid.
